Measured values taken from US20230136297A1, “Methods Of Treating Fabry Disease In Patients Having A Mutation In The GLA Gene” (Amicus Therapeutics, Inc., priority 2020, published 2023).
Substitutions are numbered along the chain they refer to.

Assays:
[1] = target: T1, α-Gal A mutant form G411S (Homo sapiens, UniProt P06280, G411S); assay: α-Gal A activity in lysates of transfected HEK-293 cells ± migalastat (HEK assay); type: cell-based
T1 construct: expressed in transfected cells; host or cells: HEK-293
T1 sequence (P06280 32-429 G411S): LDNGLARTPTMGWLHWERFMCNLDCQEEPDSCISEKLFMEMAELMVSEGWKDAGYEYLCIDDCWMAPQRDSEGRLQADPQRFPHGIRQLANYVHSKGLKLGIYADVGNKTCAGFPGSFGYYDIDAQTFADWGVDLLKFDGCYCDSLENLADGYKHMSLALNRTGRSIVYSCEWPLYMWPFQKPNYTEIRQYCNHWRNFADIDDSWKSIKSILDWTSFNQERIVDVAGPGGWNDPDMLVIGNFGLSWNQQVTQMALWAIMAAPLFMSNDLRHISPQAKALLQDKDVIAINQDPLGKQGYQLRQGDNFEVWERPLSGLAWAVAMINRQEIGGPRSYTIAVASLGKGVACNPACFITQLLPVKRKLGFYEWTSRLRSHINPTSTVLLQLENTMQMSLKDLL
Outline: (§1)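 Activity is reported as nmol of free 4-MU released per mg protein per hour (nmol/mg/hr).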

[2] = target: T2, α-Gal A mutant form I303T (Homo sapiens, UniProt P06280, I303T); assay: as above; type: cell-based
T2 construct: expressed in transfected cells; host or cells: HEK-293
T2 sequence (P06280 32-429 I303T): T1 sequence (P06280 32-429 G411S) with I272T, S380G
Outline: as §1

[3] = target: T3, α-Gal A mutant form I303V (Homo sapiens, UniProt P06280, I303V); assay: as above; type: cell-based
T3 construct: expressed in transfected cells; host or cells: HEK-293
T3 sequence (P06280 32-429 I303V): T1 sequence (P06280 32-429 G411S) with I272V, S380G
Outline: as §1

α-Gal A mutant form R38S = target: T4, α-Gal A mutant form R38S (Homo sapiens, UniProt P06280, R38S); assay: as above; type: cell-based
T4 construct: expressed in transfected cells; host or cells: HEK-293
T4 sequence (P06280 32-429 R38S): T1 sequence (P06280 32-429 G411S) with R7S, S380G
Outline: as §1

[4] = target: T5, α-Gal A mutant form W209R (Homo sapiens, UniProt P06280, W209R); assay: as above; type: cell-based
T5 construct: expressed in transfected cells; host or cells: HEK-293
T5 sequence (P06280 32-429 W209R): T1 sequence (P06280 32-429 G411S) with W178R, S380G
Outline: as §1

[5] = test system: novel α-Gal A mutations A29D, R38S, N53Y, Y88C, V124G, I133F, A143V, Y152N, F159C, A160D, D165N, F169I, L180V, D182G, R196T, W209R, A257T, P259S, G271A, S276T …; assay: HEK assay, amenability of the novel mutations taken together; type: cell-based, human; details: all 31 novel mutations; criteria: relative increase ≥1.20-fold and absolute increase ≥3.0% wild-type at 10 μM migalastat
Source text: Such mutations or variants are also referred to herein as “HEK assay amenable” mutations or variants.
The α-Gal A activity is expressed as the nmoles of free 4-MU released per milligram of protein per hour (nmol/mg/hr).

[6] = 10 μM migalastat minus baseline
[7] = HEK-293 lysates, 10 μM migalastat 5 days, mean ± SEM

OC[C@H]1NC[C@H](O)[C@@H](O)[C@H]1O [migalastat, (2R,3S,4R,5S)-2-(hydroxymethyl) piperdine-3,4,5-triol]
Absolute increase (% WT) [1, 6]: 22 % WT | Relative increase ([1]; 10 μM migalastat ÷ baseline): 1.58 | 10 μM migalastat α-Gal A activity [1, 7]: 17543 ± 867 nmol/mg/h | 10 μM migalastat α-Gal A activity (% WT) [1, 7]: 61.1 ± 3.2 % WT | Absolute increase (% WT) ([2]; 10 μM migalastat minus baseline, baseline BLD): 7.3 % WT | 10 μM migalastat α-Gal A activity (% WT) ([2]; HEK-293 lysates, 10 μM migalastat 5 days, mean ± SEM, baseline BLD): 7.3 ± 1.4 % WT | 10 μM migalastat α-Gal A activity ([2]; HEK-293 lysates, 10 μM migalastat 5 days, mean ± SEM, baseline BLD (<142 nmol/mg/hr)): 2809 ± 520 nmol/mg/h | Absolute increase (% WT) [3, 6]: 35 % WT | Relative increase ([3]; 10 μM migalastat ÷ baseline): 1.91 | 10 μM migalastat α-Gal A activity [3, 7]: 28958 ± 3153 nmol/mg/h | 10 μM migalastat α-Gal A activity (% WT) [3, 7]: 73.2 ± 8.8 % WT | Absolute increase (% WT) (α-Gal A mutant form R38S; [6]): 26.6 % WT | Relative increase (α-Gal A mutant form R38S; 10 μM migalastat ÷ baseline): 1.29 | 10 μM migalastat α-Gal A activity (α-Gal A mutant form R38S; [7]): 30928 ± 1484 nmol/mg/h | 10 μM migalastat α-Gal A activity (% WT) (α-Gal A mutant form R38S; [7]): 100 ± 9.3 % WT | Absolute increase (% WT) [4, 6]: 17.5 % WT | Relative increase ([4]; 10 μM migalastat ÷ baseline): 1.25 | 10 μM migalastat α-Gal A activity [4, 7]: 28729 ± 1293 nmol/mg/h | 10 μM migalastat α-Gal A activity (% WT) [4, 7]: 81.1 ± 4.6 % WT | in vitro response to incubation with migalastat [5]: met amenability criteria
